ChEMBL document CHEMBL1129135, “Synthesis and antitumor evaluation of paclitaxel phosphonooxymethyl ethers: a novel class of water soluble paclitaxel pro-drugs” (1996)

Columns and labels:
Format in all cases: functional
Details in all cases: route intraperitoneal
Mus musculus [1] = test: Compound was tested in vivo for its efficacy against the M109 murine tumor model at the dose of 60 mg/kg/injection after ip administration (Data reported with reference to Paclitaxel)
Mus musculus [2] = test: Compound was tested in vivo for its efficacy against the M109 murine tumor model at the dose of 200 mg/kg/inj after ip administration
Mus musculus [3] = test: Compound was tested in vivo for its efficacy against the M109 murine tumor model at the dose of 44 mg/kg/injection after ip administration (Data reported with reference to Paclitaxel)
Mus musculus [4] = test: Compound was tested in vivo for its efficacy against the M109 murine tumor model at the dose of 64 mg/kg/injection after ip administration

CC(=O)O[C@H]1C(=O)[C@@]2(C)[C@H]([C@H](OC(=O)c3ccccc3)[C@]3(O)C[C@H](OC(=O)[C@H](OCOP(=O)(O)O)[C@@H](NC(=O)c4ccccc4)c4ccccc4)C(C)=C1C3(C)C)[C@]1(OC(C)=O)CO[C@@H]1C[C@@H]2O
T/C (Mus musculus [1]): 237% | T/C (Mus musculus [2]): 144%

CCOC(=O)O[C@@H](C(=O)O[C@H]1C[C@@]2(O)[C@@H](OC(=O)c3ccccc3)[C@@H]3[C@]4(OC(C)=O)CO[C@@H]4C[C@H](OCOP(=O)(O)O)[C@@]3(C)C(=O)[C@H](OC(C)=O)C(=C1C)C2(C)C)[C@@H](NC(=O)c1ccccc1)c1ccccc1
T/C (Mus musculus [3]): 175% | T/C (Mus musculus [4]): 188%
